The values that follow come from ChEMBL document CHEMBL4007388, “Synthesis and antiproliferative activity of monocationic arylthiophene derivatives” (Eur J Med Chem, 2017).

Molecules are shown by their SMILES.

One data set concerns NCI-H322M. In words: Growth inhibition of human NCI-H322M cells incubated for 48 hrs by sulforhodamine B assay. Type of data set: functional. For orientation: Sulforhodamine B stains cellular protein and so reports cell mass.
The next data set concerns OVCAR-4. In words: Growth inhibition of human OVCAR4 cells incubated for 48 hrs by sulforhodamine B assay. To be noted: OVCAR-4, 48 h. Type of data set: functional.
The subject of the next data set is SK-MEL-2. The data set is described as follows: Growth inhibition of human SK-MEL-2 cells incubated for 48 hrs by sulforhodamine B assay. The conditions noted are these: SK-MEL-2, 48 h. Type of data set: functional.
The next data set relates to LOX IMVI. The data set is described as follows: Growth inhibition of human LOXIMVI cells incubated for 48 hrs by sulforhodamine B assay. Type of data set: functional.
A further data set is filed under the species Homo sapiens. The data set is described as follows: Inhibition of PTK in human MCF7 cells at 1 uM preincubated for 2 hrs followed by poly-Glu-Tyr substrate addition by ELISA relative to control. Type of data set: cell-based. A general note: An ELISA detects its analyte on a solid surface through an enzyme-linked reagent.
The next data set relates to U-251. The data set is described as follows: Growth inhibition of human U251 cells incubated for 48 hrs by sulforhodamine B assay. The data set is classed as functional. To be noted: U-251, 48 h.
A further data set deals with K562. In words: Growth inhibition of human K562 cells incubated for 48 hrs by sulforhodamine B assay. Type of data set: functional. To be noted: K562, 48 h.
For the next data set, the system named is MDA-MB-435. In words: Growth inhibition of human MDA-MB-435 cells incubated for 48 hrs by sulforhodamine B assay. The data set is classed as functional. To be noted: MDA-MB-435, 48 h.
The test system of the next data set is NCI/ADR-RES. In words: Growth inhibition of human NCI/ADR-RES cells incubated for 48 hrs by sulforhodamine B assay. Type of data set: functional.
The next data set relates to PC-3. The data set is described as follows: Growth inhibition of human PC3 cells incubated for 48 hrs by sulforhodamine B assay. Type of data set: functional. The conditions noted are these: PC-3, 48 h.
A further data set has as its system HT-29. The data set is described as follows: Growth inhibition of human HT-29 cells incubated for 48 hrs by sulforhodamine B assay. The conditions noted are these: HT-29, 48 h. Type of data set: functional.
The next data set has as its system HCC 2998. In words: Growth inhibition of human HCC2998 cells incubated for 48 hrs by sulforhodamine B assay. The data set is classed as functional. To be noted: HCC 2998, 48 h.
The subject of the next data set is T47D. The data set is described as follows: Growth inhibition of human T47D cells incubated for 48 hrs by sulforhodamine B assay. Type of data set: functional.
Another data set deals with A549. The data set is described as follows: Growth inhibition of human A549/ATCC cells incubated for 48 hrs by sulforhodamine B assay. The data set is classed as functional. The conditions noted are these: A549, 48 h.
The nature of data set [1]: Antioxidant activity assessed as superoxide dismutase-like activity by measuring inhibition of superoxide radical anion production at 2 uM by NBT reduction assay relative to control. The data set is classed as functional.
For the next data set, the system named is MDA-MB-231. The data set is described as follows: Growth inhibition of human MDA-MB-231 cells incubated for 48 hrs by sulforhodamine B assay. To be noted: MDA-MB-231, 48 h. Type of data set: functional.
In the next data set the test system is SF-295. In words: Growth inhibition of human SF295 cells incubated for 48 hrs by sulforhodamine B assay. The data set is classed as functional. To be noted: SF-295, 48 h.
Data set [2] is described as follows: Inhibition of PTK in human MCF7 cells preincubated for 2 hrs followed by poly-Glu-Tyr substrate addition by ELISA. Type of data set: cell-based.
Data set [3] can be described thus: Safety index, ratio of compound IC50 to 5-fluorouracil IC50 for human WISH cells. The data set is classed as ADME, cell-based. To be noted: read-out: Ratio IC50.
Data set [4] can be described thus: Safety index, ratio of compound IC50 to 5-fluorouracil IC50 for human WI38 cells. To be noted: WI-38 cells, read-out: Ratio IC50. The data set is classed as ADME, cell-based.

In general, GI50 refers to the concentration giving 50% growth inhibition. Lower therefore signals greater sensitivity of the cells. As usually defined, the inhibition is the change of the read-out against control, counted positive when it falls. A word on the IC50: it is the midpoint of a concentration-inhibition curve.

Turning to `N=C(N)c1ccc(-c2ccc(-c3ccccc3)s2)cc1F`, the GI50 in the data set on NCI-H322M stood at 6000 nM; in the data set with OVCAR-4, 10400 nM; with SK-MEL-2, 4910 nM; with LOX IMVI, 2580 nM; in the data set with U-251 it was 4700 nM; in the data set with K562, 3970 nM. The GI50 is 2180 nM with MDA-MB-435; 14100 nM in the data set on NCI/ADR-RES; 4180 nM in the data set with PC-3; 3400 nM with HT-29; 2450 nM in the data set on HCC 2998; 5130 nM in the data set on T47D. For the same compound, the GI50 in the data set with A549 was determined as 5100 nM; in the data set with MDA-MB-231, 3340 nM. For the same compound, the results for the inhibition (in the data set listed under Homo sapiens; in data set [1]) were 19 to 36% and 54.5%, respectively.

For `COc1cc(OC)cc(-c2ccc(-c3ccc(C(=N)N)c(F)c3)s2)c1`, the GI50 is 502 nM in the data set with NCI-H322M; 361 nM in the data set with OVCAR-4; 1590 nM in the data set with SF-295; 1860 nM in the data set on SK-MEL-2; 196 nM in the data set on LOX IMVI; 198 nM with U-251. Moreover, the GI50 is 262 nM in the data set on K562; 194 nM in the data set on MDA-MB-435; 1590 nM in the data set on NCI/ADR-RES; 1300 nM in the data set with PC-3; 267 nM in the data set with HT-29; 207 nM in the data set on HCC 2998. The compound also yielded a GI50 in the data set with A549 of 400 nM. This compound returned an IC50 in data set [2] of 877 nM. In addition, the inhibition in the data set filed under Homo sapiens came to 74%; in data set [1], 55.5%.

For `COc1ccc(-c2ccc(-c3ccc(C(=N)N)c(F)c3)s2)cc1`, the GI50 with NCI-H322M was determined as 3580 nM; in the data set with OVCAR-4, 6420 nM; with SK-MEL-2, 2410 nM; with LOX IMVI it was 2230 nM; with U-251, 2920 nM; with K562, 2660 nM. For the same compound, the GI50 with MDA-MB-435 was 1830 nM; in the data set with NCI/ADR-RES, 10100 nM; with PC-3, 4050 nM; with HT-29, 2790 nM; in the data set on HCC 2998 it was 1850 nM; with T47D it was 2920 nM. For the same compound, the figures for the GI50 with A549 and with MDA-MB-231 were 4760 nM and 2750 nM, respectively. The compound further came in with an IC50 in data set [2] of 920 nM. Besides, the inhibition in the data set filed under Homo sapiens worked out at 66%; in data set [1], 55%.

In the case of `N=C(N)c1ccc(-c2ccc(-c3ccc(Cl)cc3)s2)cc1F`, the GI50 amounted to 386 nM with NCI-H322M; 224 nM in the data set on OVCAR-4; 691 nM in the data set with SF-295; 1500 nM in the data set on SK-MEL-2; 205 nM in the data set on LOX IMVI; 203 nM in the data set on U-251. The GI50 in the data set with K562 was 272 nM; in the data set with MDA-MB-435, 163 nM; in the data set with NCI/ADR-RES it was 361 nM; in the data set on PC-3, 394 nM; with HT-29 it was 203 nM; in the data set on HCC 2998 it was 156 nM. In the data set with A549, the GI50 amounted to 217 nM. Further, the midpoint of inhibition in [2], the IC50, lay at 107 nM. Also, the inhibition in the data set listed under Homo sapiens is 88%; in data set [1], 59%. Besides, the selectivity ratio stood at 9 in data set [3] and 6 in [4].

`COc1cc(OC)cc(-c2ccc(-c3ccc(C(=N)N)cc3)s2)c1`: the GI50 is 1690 nM with NCI-H322M; 2060 nM in the data set on OVCAR-4; 1820 nM in the data set on SF-295; 1950 nM in the data set on SK-MEL-2; 924 nM in the data set on LOX IMVI; 1670 nM in the data set with U-251. Further, the GI50 worked out at 418 nM with K562; 1700 nM in the data set on MDA-MB-435; 1970 nM in the data set on NCI/ADR-RES; 1800 nM in the data set on PC-3; 1090 nM with HT-29; 1820 nM with HCC 2998. In addition, the figures for the GI50 in the data set with T47D, with A549 and in the data set on MDA-MB-231 were 1650 nM, 2580 nM and 2080 nM, respectively. The inhibition in the data set listed under Homo sapiens was 19 to 36%; in data set [1], 57%.

As for `N=C(N)c1ccc(-c2ccc(-c3ccc(F)cc3)s2)cc1`, the GI50 was determined as 1330 nM with NCI-H322M; 1630 nM in the data set on OVCAR-4; 1660 nM in the data set with SF-295; 2050 nM in the data set with SK-MEL-2; 164 nM with LOX IMVI; 457 nM in the data set with U-251. Further, the GI50 turned out to be 268 nM in the data set with K562; 1660 nM with MDA-MB-435; 1770 nM with NCI/ADR-RES; 1590 nM with PC-3; 323 nM in the data set with HT-29; 492 nM in the data set on HCC 2998. Besides, the GI50 in the data set on T47D was determined as 1200 nM; with A549 it was 2120 nM; with MDA-MB-231, 1560 nM. Also, the inhibition in the data set listed under Homo sapiens is 19 to 36%; in data set [1], 59.6%.

In the case of `N=C(N)c1ccc(-c2ccc(-c3ccc(Cl)cc3)s2)cc1`, the GI50 in the data set with NCI-H322M stood at 182 nM; in the data set with OVCAR-4 it was 172 nM; with SF-295 it was 171 nM; in the data set with SK-MEL-2, 241 nM; in the data set on LOX IMVI, 179 nM; in the data set on U-251, 172 nM. The GI50 in the data set on K562 was 202 nM; in the data set on MDA-MB-435 it was 172 nM; in the data set on NCI/ADR-RES, 185 nM; in the data set on PC-3, 164 nM; with HT-29, 177 nM; with HCC 2998 it was 183 nM. The GI50 turned out to be 179 nM in the data set on T47D, 202 nM in the data set on A549 and 184 nM in the data set with MDA-MB-231. Half-maximal inhibition in [2] (IC50) was put at 13 nM. Also, the inhibition worked out at 98% in the data set filed under Homo sapiens and 60.6% in data set [1].
